Experimental data as given in patent publication US20230146455A1, “TREATMENT OF INFLAMMATORY DISEASES WITH PEPTIDES AND PHARMACEUTICAL COMPOSITIONS” (Yuyu Pharma, Inc., priority 2020, published 2023).
Values joined by “and” are separate entries in the source; they are usually repeats but may differ in a detail not shown here. Equal entries are not always repeated. Where a SMILES comes first, the peptide text is derived from it. [ ]: non-standard residue; d: D form. Hyp = O=C(O)[C@@H]1C[C@@H](O)CN1

Columns and labels:
[1] = PBMC cell counts (total, live, viability; trypan blue, Countess) with and without LPS and test articles (Example 9); type: cell-based, human; details: human, PBMCs, 24 hr
In short: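 Human PBMCs were pretreated 2 h with test articles (0.001–100 uM) or 0.5% DMSO vehicle, then given LPS at 5 ug/ml or no LPS, in triplicate. After 24 hr, total and live cells and viability were counted by 1:1 trypan blue staining on an automated counter.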

IL-1 beta/IL-1F2 = assay: Example 9 Luminex, LPS hPBMCs: IL-1 beta/IL-1F2; type: cell-based, human
Protocol: Treatment Human PBMCs were pretreated with YY-101, YDE-011 and YDE-043 or reference compound; Xiidra® at various concentration (ranging from 1 nM to 100 uM) for 2 h before stimulation. An equal volume of 0.5% DMSO was used as a vehicle control. Then, the cells were treated with LPS at 5 ug/ml. The supernatants from treated cells were harvested at 24 h and placed in a 96 well for Luminex cytokine & chemokine profiling using a Luminex 200 multiplex assay (Luminex; R&D system, USA).
The main study arm with triplicate wells per group in a 24-well plate: • 1. Blank • 2. PBMC: 0.5% DMSO • 3. PBMC+LPS (5 ug/ml) • 4. PBMC+YY-101 100 uM • 5. PBMC+YY-101 10 uM • 6. PBMC+YY-101 1 uM • 7. PBMC+YY-101 0.1 uM • 8. PBMC+YY-101 0.01 uM • 9. PBMC+LPS (5 ug/ml)+Xiidra®100 uM • 10. PBMC+LPS (5 ug/ml)+Xiidra® 10 uM • 11. PBMC+LPS (5 ug/ml)+Xiidra® 1 uM • 12. PBMC+LPS (5 ug/ml)+Xiidra®0.1 uM • 13. PBMC+LPS (5 ug/ml)+Xiidra®0.01 uM • 14. PBMC+LPS (5 ug/ml)+Xiidra®0.001 uM • 15. PBMC+LPS (5 ug/ml)+YY-101 100 uM • 16. PBMC+LPS (5 ug/ml)+YY-101 10 uM • 17. PBMC+LPS (5 ug/ml)+YY-101 1 uM • 18. PBMC+LPS (5 ug/ml)+YY-101 0.1 uM • 19. PBMC+LPS (5 ug/ml)+YY-101 0.01 uM • 20. PBMC+LPS (5 ug/ml)+YY-101 0.001 uM • 21. PBMC+LPS (5 ug/ml)+YDE-011 100 uM • 22. PBMC+LPS (5 ug/ml)+YDE-011 10 uM • 23. PBMC+LPS (5 ug/ml)+YDE-011 1 uM • 24. PBMC+LPS (5 ug/ml)+YDE-011 0.1 uM • 25. PBMC+LPS (5 ug/ml)+YDE-011 0.01 uM • 26. PBMC+LPS (5 ug/ml)+YDE-011 0.001 uM • 27. PBMC+LPS (5 ug/ml)+YDE-043 100 uM • 28. PBMC+LPS (5 ug/ml)+YDE-043 10 uM • 29. PBMC+LPS (5 ug/ml)+YDE-043 1 uM • 30. PBMC+LPS (5 ug/ml)+YDE-043 0.1 uM • 31. PBMC+LPS (5 ug/ml)+YDE-043 0.01 uM • 32. PBMC+LPS (5 ug/ml)+YDE-043 0.001 uM
Multiplex assay was used to measure 30 cytokines and chemokines. The 1:2, 1:10 and 1:200 diluted cell supernatant and serial dilution of the standard were dispensed into a 96 well plate at 50 ul/well. Then, the pre-mixed cocktail of antibody-coated magnetic beads was dispensed at 50 ul/well and incubated at room temperature for 2 h in a horizontal orbital microplate shaker at 800±500 rpm. The beads were washed using a magnetic device to prevent loss. The biotin-antibody was dispensed in 50 ul of each well and incubated at room temperature for 1 h in a shaker at 800±500 rpm. After washing, streptavidin-PE was added at 50 ul/well and incubated at room temperature for 30 min in a shaker under the same conditions. Finally, after washing, wash buffer (100 ul/well) was added to the plate and incubated in a shaker for 2 min. The Luminex™ 200 setting were set according to the manufacturer's protocol. The data was calculated with a standard five-parameter logistic nonlinear regression analysis of the data (xPonent software 4.2, USA). The levels of cytokine/chemokine are normalized to the live cell counts (1×10^5 cells/mL) and presented as concentrations per mL (pg/mL or ng/mL).

[2] = PBMC + LPS(5 ug/ml) + test article 0.001 uM, Mean
[3] = PBMC + LPS(5 ug/ml) + test article 0.001 uM, single replicates
[4] = PBMC + LPS(5 ug/ml) + test article 0.01 uM, Mean
[5] = PBMC + LPS(5 ug/ml) + test article 0.01 uM, single replicates
[6] = PBMC + LPS(5 ug/ml) + test article 0.1 uM, Mean
[7] = PBMC + LPS(5 ug/ml) + test article 0.1 uM, single replicates
[8] = PBMC + LPS(5 ug/ml) + test article 1 uM, Mean
[9] = PBMC + LPS(5 ug/ml) + test article 1 uM, single replicates
[10] = PBMC + LPS(5 ug/ml) + test article 10 uM, Mean
[11] = PBMC + LPS(5 ug/ml) + test article 10 uM, single replicates
[12] = PBMC + LPS(5 ug/ml) + test article 100 uM, Mean
[13] = PBMC + LPS(5 ug/ml) + test article 100 uM, single replicates

## CC(C)C[C@H](NC(=O)[C@H](CCC(N)=O)NC(=O)CNC(=O)[C@@H]1C[C@@H](O)CN1)C(=O)NCC(=O)O [YDE-043] (H-[Hyp]GQLG-OH; N-terminus and C-terminus assumed)
[1]; PBMC + LPS(5 ug/ml) + compound 0.001 uM
  viability at 24 h, 0.001 µM: 79.3 ± 1.5%
[1]; PBMC + LPS(5 ug/ml) + compound 0.01 uM
  viability at 24 h, 0.01 µM: 77.3 ± 6.9%
[1]; PBMC + LPS(5 ug/ml) + compound 0.1 uM
  viability at 24 h, 0.1 µM: 82 ± 4%
[1]; PBMC + LPS(5 ug/ml) + compound 1 uM
  viability at 24 h, 1 µM: 78 ± 5%
[1]; PBMC + LPS(5 ug/ml) + compound 10 uM
  viability at 24 h, 10 µM: 83.3 ± 3.3%
[1]; PBMC + LPS(5 ug/ml) + compound 100 uM
  viability at 24 h, 100 µM: 84.5 ± 4.5%
IL-1 beta/IL-1F2; [2]
  Concentration: 6632.8 pg/mL
  MFI: 1711.8
  conc/live cell: 1343.9 pg/10^5
IL-1 beta/IL-1F2; [3]
  Concentration: 6369.5 pg/mL and 7037.7 pg/mL and 6491.1 pg/mL
  MFI: 1640.5 and 1821.5 and 1673.5
  conc/live cell: 1447.6 pg/10^5 and 1173.0 pg/10^5 and 1411.1 pg/10^5
IL-1 beta/IL-1F2; [4]
  Concentration: 6569.2 pg/mL
  MFI: 1694.7
  conc/live cell: 1253.9 pg/10^5
IL-1 beta/IL-1F2; [5]
  Concentration: 6432.1 pg/mL and 6655.2 pg/mL and 6620.2 pg/mL
  MFI: 1657.5 and 1718.0 and 1708.5
  conc/live cell: 1429.4 pg/10^5 and 1008.4 pg/10^5 and 1324.0 pg/10^5
IL-1 beta/IL-1F2; [6]
  Concentration: 6324.2 pg/mL
  MFI: 1628.2
  conc/live cell: 1172.5 pg/10^5
IL-1 beta/IL-1F2; [7]
  Concentration: 6049.3 pg/mL and 6384.2 pg/mL and 6539.0 pg/mL
  MFI: 1553.5 and 1644.5 and 1686.5
  conc/live cell: 1209.9 pg/10^5 and 1140.0 pg/10^5 and 1167.7 pg/10^5
IL-1 beta/IL-1F2; [8]
  Concentration: 6195.3 pg/mL
  MFI: 1593.2
  conc/live cell: 1173.7 pg/10^5
IL-1 beta/IL-1F2; [9]
  Concentration: 6303.2 pg/mL and 5942.7 pg/mL and 6340.0 pg/mL
  MFI: 1622.5 and 1524.5 and 1632.5
  conc/live cell: 1086.8 pg/10^5 and 1238.1 pg/10^5 and 1196.2 pg/10^5
IL-1 beta/IL-1F2; [10]
  Concentration: 6556.9 pg/mL
  MFI: 1691.3
  conc/live cell: 1214.7 pg/10^5
IL-1 beta/IL-1F2; [11]
  Concentration: 6382.4 pg/mL and 6634.9 pg/mL and 6653.4 pg/mL
  MFI: 1644.0 and 1712.5 and 1717.5
  conc/live cell: 1227.4 pg/10^5 and 1228.7 pg/10^5 and 1188.1 pg/10^5
IL-1 beta/IL-1F2; [12]
  Concentration: 8209.5 pg/mL
  MFI: 2135.8
  conc/live cell: 1304.8 pg/10^5
IL-1 beta/IL-1F2; [13]
  Concentration: 8744.5 pg/mL and 7674.4 pg/mL
  MFI: 2278.5 and 1993.0
  conc/live cell: 1410.4 pg/10^5 and 1199.1 pg/10^5
